Reference: the supplement of paper PMC4862054

Tests used:
Assay in all cases: normalised viability (% of control), CellTiter-Blue; higher = more viable cells (about 100 = DMSO control)
Conditions in all cases: incubation time: 72 h
[1] = system: CAL-85-1
Description: (§1)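 DSRT, CellTiter-Blue viability, 72 h incubation. Signal is normalised to DMSO and benzethonium chloride controls. Value is the normalised response at dose 6.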

[2] = system: DU-4475
Description: as §1

[3] = system: CAL-148
Description: as §1

[4] = system: MDA-MB-453
Description: as §1

[5] = system: HDQ-P1
Description: as §1

[6] = system: CAL-51
Description: as §1

[7] = system: CAL-85-1; remark: listed apart in the source
Description: (§2)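 DSRT, CellTiter-Blue viability, 72 h incubation. Signal is normalised to DMSO and benzethonium chloride controls. Value is the normalised response at dose 8.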

[8] = system: DU-4475; remark: listed apart in the source
Description: as §2

[9] = system: CAL-148; remark: listed apart in the source
Description: as §2

[10] = system: MDA-MB-453; remark: listed apart in the source
Description: as §2

[11] = system: HDQ-P1; remark: listed apart in the source
Description: as §2

[12] = system: CAL-51; remark: listed apart in the source
Description: as §2

[13] = system: CAL-85-1; remark: listed apart in the source
Description: (§3)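 DSRT, CellTiter-Blue viability, 72 h incubation. Signal is normalised to DMSO and benzethonium chloride controls. Value is the normalised response at dose 7.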

[14] = system: DU-4475; remark: listed apart in the source
Description: as §3

[15] = system: CAL-148; remark: listed apart in the source
Description: as §3

[16] = system: MDA-MB-453; remark: listed apart in the source
Description: as §3

[17] = system: HDQ-P1; remark: listed apart in the source
Description: as §3

[18] = system: CAL-51; remark: listed apart in the source
Description: as §3

Row | SMILES | normalised viability [1] | normalised viability [2] | normalised viability [3] | normalised viability [4] | normalised viability [5] | normalised viability [6] | also measured
1 | C[C@@H](Oc1cc(-c2cnn(C3CCNCC3)c2)cnc1N)c1c(Cl)ccc(F)c1Cl [Crizotinib] (300 nM) | 92% | 112% | 101% | 71.1% | 36.5% | 99.7% | 
2 | C[C@]12CC[C@@H]3c4ccc(O)cc4C[C@@H](CCCCCCCCC[S+]([O-])CCCC(F)(F)C(F)(F)F)[C@H]3[C@@H]1CC[C@@H]2O (stereo partly specified) [Fulvestrant] (300 nM) | 87.8% | 92.7% | 102% | 98.8% | 74.7% | 111% | 
3 | C=C(c1ccc(C(=O)O)cc1)c1cc2c(cc1C)C(C)(C)CCC2(C)C [Bexarotene] (3000 nM) |  |  |  |  |  |  | normalised viability [7]: 99.2%; normalised viability [8]: 97%; normalised viability [9]: 79.8%; normalised viability [10]: 84.2%; normalised viability [11]: 77.3%; normalised viability [12]: 92.8%
4 | C[C@]12CC[C@@H]3c4ccc(O)cc4C[C@@H](CCCCCCCCC[S+]([O-])CCCC(F)(F)C(F)(F)F)[C@H]3[C@@H]1CC[C@@H]2O (stereo partly specified) [Fulvestrant] (3000 nM) |  |  |  |  |  |  | normalised viability [7]: 94.6%; normalised viability [8]: 107%; normalised viability [9]: 104%; normalised viability [10]: 92.8%; normalised viability [11]: 90.4%; normalised viability [12]: 99.7%
5 | COc1cc2nccc(Oc3ccc(NC(=O)C4(C(=O)Nc5ccc(F)cc5)CC4)cc3)c2cc1OC [Cabozantinib] (30 nM) | 85.5% | 96.1% | 111% | 96.5% | 62.5% | 102% | 
6 | CC(=O)Nc1ccc(C(=O)Nc2ccccc2N)cc1 [CI-994] (30 nM) | 104% | 85.6% | 92.8% | 102% | 100% | 98.3% | 
7 | CCN(CCCOc1ccc2c(Nc3cc(CC(=O)Nc4cccc(F)c4)[nH]n3)ncnc2c1)CCOP(=O)(O)O [Barasertib] (300 nM) |  |  |  |  |  |  | normalised viability [7]: 73.1%; normalised viability [8]: 63.8%; normalised viability [9]: 22.6%; normalised viability [10]: 61%; normalised viability [11]: 64.3%; normalised viability [12]: 54%
8 | Oc1nc(-c2ccc(C(F)(F)F)cc2)nc2c1CSCC2 [XAV-939] (3000 nM) |  |  |  |  |  |  | normalised viability [7]: 94.1%; normalised viability [8]: 94.1%; normalised viability [9]: 89.8%; normalised viability [10]: 95.4%; normalised viability [11]: 76.8%; normalised viability [12]: 90.3%
9 | CC(=O)Nc1ccc(C(=O)Nc2ccccc2N)cc1 [CI-994] (300 nM) |  |  |  |  |  |  | normalised viability [7]: 110%; normalised viability [8]: 90.5%; normalised viability [9]: 100%; normalised viability [10]: 96.1%; normalised viability [11]: 130%; normalised viability [12]: 99.5%
10 | CCN(CCCOc1ccc2c(Nc3cc(CC(=O)Nc4cccc(F)c4)[nH]n3)ncnc2c1)CCOP(=O)(O)O [Barasertib] (30 nM) | 77.7% | 85.7% | 23.7% | 67.6% | 46% | 72% | 
11 | C#Cc1cccc(Nc2ncnc3cc(OCCOC)c(OCCOC)cc23)c1 [Erlotinib] (3000 nM) |  |  |  |  |  |  | normalised viability [7]: 49.8%; normalised viability [8]: 108%; normalised viability [9]: 66.9%; normalised viability [10]: 73.5%; normalised viability [11]: 75.4%; normalised viability [12]: 95.9%
12 | CCC1(c2ccc(N)cc2)CCC(=O)NC1=O (stereo unspecified) [Aminoglutethimide] (3000 nM) |  |  |  |  |  |  | normalised viability [7]: 90.1%; normalised viability [8]: 103%; normalised viability [9]: 105%; normalised viability [10]: 82.6%; normalised viability [11]: 92.5%; normalised viability [12]: 85.1%
13 | Oc1nc(-c2ccc(C(F)(F)F)cc2)nc2c1CSCC2 [XAV-939] (300 nM) | 89.2% | 116% | 93.3% | 93.8% | 112% | 99.3% | 
14 | NCC(=O)CCC(=O)O [Aminolevulinic acid] (300 nM) | 91.4% | 91.8% | 113% | 117% | 90% | 102% | 
15 | C=C(c1ccc(C(=O)O)cc1)c1cc2c(cc1C)C(C)(C)CCC2(C)C [Bexarotene] (300 nM) | 89.8% | 116% | 92.8% | 71.4% | 54.5% | 92.8% | 
16 | C#Cc1cccc(Nc2ncnc3cc(OCCOC)c(OCCOC)cc23)c1 [Erlotinib] (300 nM) | 73.3% | 114% | 86.1% | 86.1% | 63.8% | 96.4% | 
17 | N[C@@H](CSC(c1ccccc1)(c1ccccc1)c1ccccc1)C(=O)O [S-trityl-L-cysteine] (1200 nM) | 95.1% | 97.8% | 114% | 90.5% | 68.4% | 78.5% | 
18 | CCC1=C[C@@H]2CN(C1)Cc1c([nH]c3ccccc13)[C@@](C(=O)OC)(c1cc3c(cc1OC)N(C)[C@H]1[C@@](O)(C(=O)OC)[C@H](OC(C)=O)[C@]4(CC)C=CCN5CC[C@]31[C@@H]54)C2 [Vinorelbine] (300 nM) | 31.4% | 53.9% | 24.5% | 25.2% | 40.5% | 35% | 
19 | Cc1ccc(C(=O)N(CCCN)[C@@H](c2oc3cc(Cl)ccc3c(=O)c2Cc2ccccc2)C(C)C)cc1 (30 nM) | 33.3% | 24.3% | 18.3% | 24.8% | 74% | 26.8% | 
20 | Cc1ccc(C(=O)Nc2ccc(CN3CCN(C)CC3)c(C(F)(F)F)c2)cc1C#Cc1cnc2cccnn12 [Ponatinib] (30 nM) | 90% | 81.4% | 106% | 85.3% | 97% | 86.3% | 
21 | CC(=O)Nc1ccc(C(=O)Nc2ccccc2N)cc1 [CI-994] (100 nM) |  |  |  |  |  |  | normalised viability [13]: 89.5%; normalised viability [14]: 98.7%; normalised viability [15]: 91.2%; normalised viability [16]: 92%; normalised viability [17]: 119%; normalised viability [18]: 98.1%

Row | SMILES | normalised viability [1] | normalised viability [2] | normalised viability [3] | normalised viability [4] | normalised viability [5] | normalised viability [6] | also measured
22 | CC1(C)NC(=O)N(c2ccc([N+](=O)[O-])c(C(F)(F)F)c2)C1=O [Nilutamide] (300 nM) | 104% | 106% | 98% | 113% | 125% | 102% | 
23 | CCC1(c2ccc(N)cc2)CCC(=O)NC1=O (stereo unspecified) [Aminoglutethimide] (300 nM) | 92.9% | 93.4% | 104% | 89.6% | 72.9% | 84.8% | 
24 | Clc1ccc(Nc2nnc(Cc3ccncc3)c3ccccc23)cc1 [Vatalanib] (300 nM) | 94.6% | 95% | 88.5% | 105% | 78.7% | 98.3% | 
25 | CC(C)Cn1cnc2c(N)nc3ccccc3c21 [Imiquimod] (300 nM) | 102% | 80.5% | 96.5% | 103% | 75.3% | 97.5% | 
26 | NC(=O)Nc1cc(-c2cccc(F)c2)sc1C(=O)N[C@H]1CCCNC1 [AZD 7762] (100 nM) |  |  |  |  |  |  | normalised viability [13]: 89.1%; normalised viability [14]: 97.4%; normalised viability [15]: 102%; normalised viability [16]: 88.5%; normalised viability [17]: 96.5%; normalised viability [18]: 101%
27 | Cn1c(Nc2ccc(C(F)(F)F)cc2)nc2cc(Oc3ccnc(-c4ncc(C(F)(F)F)[nH]4)c3)ccc21 [RAF265] (30 nM) | 88.9% | 111% | 86.2% | 88.3% | 51.7% | 89.8% | 
28 | NC(=O)Nc1cc(-c2cccc(F)c2)sc1C(=O)N[C@H]1CCCNC1 [AZD 7762] (30 nM) | 99.5% | 99.8% | 93.7% | 110% | 93.9% | 103% | 
29 | O=C1CCC(N2C(=O)c3ccccc3C2=O)C(=O)N1 (stereo unspecified) [Thalidomide] (300 nM) | 105% | 99.6% | 117% | 103% | 80.2% | 88.4% | 
30 | CO[C@H]1/C=C\C=C(/C)C(=O)NC2=CC(=O)C(NCCN(C)C)=C(C[C@@H](C)C[C@H](OC)[C@H](O)[C@@H](C)/C=C(\C)[C@@H]1OC(N)=O)C2=O [Alvespimycin] (30 nM) | 62.8% | 1.87% | 48% | 7.17% | 44.2% | 63.5% | 
31 | Cc1ccc(-n2nc(C(C)(C)C)cc2NC(=O)Nc2ccc(OCCN3CCOCC3)c3ccccc23)cc1 [Doramapimod] (300 nM) | 81.1% | 96.3% | 91.3% | 105% | 38% | 107% | 
32 | COc1cc([C@@H]2c3cc4c(cc3[C@@H](O[C@@H]3O[C@@H]5CO[C@@H](C)O[C@H]5[C@H](O)[C@H]3O)[C@H]3COC(=O)[C@H]23)OCO4)cc(OC)c1O [Etoposide] (300 nM) | 98.9% | 45.6% | 59.4% | 104% | 77.3% | 59% | 
33 | CN(N=O)C(=O)N[C@@H](C=O)[C@@H](O)[C@H](O)[C@H](O)CO [Streptozocin] (300 nM) | 106% | 97.2% | 107% | 102% | 85.4% | 108% | 
34 | CC(C)Cn1cnc2c(N)nc3ccccc3c21 [Imiquimod] (1000 nM) |  |  |  |  |  |  | normalised viability [13]: 92.8%; normalised viability [14]: 93.3%; normalised viability [15]: 106%; normalised viability [16]: 104%; normalised viability [17]: 86.1%; normalised viability [18]: 99.8%
35 | O=P1(NCCCl)OCCCN1CCCl (stereo unspecified) [Ifosfamide] (300 nM) | 97.1% | 78.1% | 109% | 110% | 85.1% | 108% | 
36 | CCN(CCCOc1ccc2c(Nc3cc(CC(=O)Nc4cccc(F)c4)[nH]n3)ncnc2c1)CCOP(=O)(O)O [Barasertib] (100 nM) |  |  |  |  |  |  | normalised viability [13]: 77.2%; normalised viability [14]: 77%; normalised viability [15]: 23.7%; normalised viability [16]: 55.3%; normalised viability [17]: 76.5%; normalised viability [18]: 60.6%
37 | Cn1c(CCCC(=O)O)nc2cc(N(CCCl)CCCl)ccc21 [Bendamustine] (300 nM) | 94.6% | 108% | 114% | 96.8% | 61% | 107% | 
38 | N.N.[Cl][Pt][Cl] [Cisplatin] (300 nM) | 99.5% | 93.6% | 104% | 107% | 78.9% | 108% | 
39 | NCC(=O)CCC(=O)O [Aminolevulinic acid] (1000 nM) |  |  |  |  |  |  | normalised viability [13]: 97.4%; normalised viability [14]: 95.6%; normalised viability [15]: 95%; normalised viability [16]: 90.5%; normalised viability [17]: 95.2%; normalised viability [18]: 106%
40 | CN(C)/N=N/c1[nH]cnc1C(N)=O [Dacarbazine] (300 nM) | 93.4% | 92.7% | 84.3% | 89% | 88.8% | 89.4% | 
41 | CNCc1ccc(-c2[nH]c3cc(F)cc4c3c2CCNC4=O)cc1 [Rucaparib] (300 nM) | 92.6% | 77.4% | 91.7% | 108% | 43.2% | 110% | 
